Laboratory results reported in patent US6548495B2, “Dihydro-benzo [B] [1,4] diazepin-2-one derivatives” (Hoffmann-La Roche Inc., priority 2002, dated 2003).

What was measured:
[1] = target: T1, recombinant rat mGluR2 expressed in CHO cells (Rattus norvegicus, UniProt P31421); experiment: [3H]-LY354740 binding on mGlu2 transfected CHO cell membranes (displacement binding assay); details: displacement of 10 nM [3H]-LY354740, membranes of CHO cells expressing rat mGlu2, room temperature, 1 hour; Ki calculated from IC50 with the Cheng and Prusoff equation
T1 construct: expressed in transfected cells; host or cells: CHO cells, stably transfected with pcD1mGR2 (pcDNA I-amp), G-418 selected; membranes used
From the text: In Table I below some specific Ki values of preferred compounds of the invention are presented. These values were obtained by indirect measurement of the affinity of the compounds for the recombinant rat mGluR2 expressed in CHO cells using a displacement binding assay with 3H-LY354740.
[^3H]-LY354740 Binding on mGlu2 Transfected CHO Cell Membranes
Transfection and Cell Culture
cDNA encoding the rat mGlu2 receptor protein in pBluescript II was obtained from Prof. S. Nakanishi (Kyoto, Japan), and subcloned into the eukaryotic expression vector pcDNA I-amp from Invitrogen (NV Leek, The Netherlands). This vector construct (pcD1mGR2) was co-transfected with a psvNeo plasmid encoding the gene for neomycin resistance, into CHO cells by a modified calcium phosphate method described by Chen & Okayama (1988). The cells were maintained in Dulbecco's Modified Eagle medium with reduced L-glutamine (2 mM final concentration) and 10% dialysed foetal calf serum from Gibco BRL (Basel, Switzerland). Selection was made in the presence of G-418 (1000 ug/mL final). Clones were identified by reverse transcription of 5 μg total RNA, followed by PCR using mGlu2 receptor specific primers 5′-[…]-3′ and 5′-[…]-3′ in 60 mM Tris HCl (pH 10), 15 mM (NH4)2SO4, 2 mM MgCl2, 25 units/mL Taq Polymerase with 30 cycles annealing at 60° C. for 1 min., extention at 72° C. for 30 s, and 1 min. 95° C. denaturation.
Cells, cultured as above, were harvested and washed three times with cold PBS and frozen at −80° C. The pellet was resuspended in cold 20 mM HEPES-NaOH buffer containing 10 mM EDTA (pH 7.4), and homogenised with a polytron (Kinematica, AG, Littau, Switzerland) for 10 s at 10000 rpm. After centrifugation for 30 min. at 4° C., the pellet was washed once with the same buffer, and once with cold 20 mM HEPES-NaOH buffer containing 0.1 mM EDTA, (pH 7.4). Protein content was measured using the Pierce method (Socochim, Lausanne, Switzerland) using bovine serum albumin as standard.
After thawing, the membranes were resuspended in cold 50 mM Tris-HCl buffer containing 2 mM MgCl2 and 2 mM CaCl2, (pH 7) (binding buffer). The final concentration of the membranes in the assays was 25 μg protein/mL. Inhibition experiments were performed with membranes incubated with 10 nM [^3H]-LY354740 at room temperature, for 1 hour, in presence of various concentrations of the compound to be tested. Following the incubations, membranes were filtered onto Whatmann GF/C glass fiber filters and washed 5 times with cold binding buffer. Non specific binding was measured in the presence of 10 μM DCG IV. After transfer of the filters into plastic vials containing 10 mL of Ultima-gold scintillation fluid (Packard, Züirich, Switzerland), the radioactivity was measured by liquid scintillation in a Tri-Carb 2500 TR counter (Packard, Züirich, Switzerland).
The inhibition curves were fitted with a four parameter logistic equation giving IC50 values, and Hill coefficients and the Ki values were calculated using the Cheng and Prusoff equation (Cheng, Y. and Prusoff, W. H., Biochem. Pharmacol. 1973, 22, 3099-3108). A small Ki value expresses high affinity of the compound towards the receptor.

T1 sequence (P31421 19-872): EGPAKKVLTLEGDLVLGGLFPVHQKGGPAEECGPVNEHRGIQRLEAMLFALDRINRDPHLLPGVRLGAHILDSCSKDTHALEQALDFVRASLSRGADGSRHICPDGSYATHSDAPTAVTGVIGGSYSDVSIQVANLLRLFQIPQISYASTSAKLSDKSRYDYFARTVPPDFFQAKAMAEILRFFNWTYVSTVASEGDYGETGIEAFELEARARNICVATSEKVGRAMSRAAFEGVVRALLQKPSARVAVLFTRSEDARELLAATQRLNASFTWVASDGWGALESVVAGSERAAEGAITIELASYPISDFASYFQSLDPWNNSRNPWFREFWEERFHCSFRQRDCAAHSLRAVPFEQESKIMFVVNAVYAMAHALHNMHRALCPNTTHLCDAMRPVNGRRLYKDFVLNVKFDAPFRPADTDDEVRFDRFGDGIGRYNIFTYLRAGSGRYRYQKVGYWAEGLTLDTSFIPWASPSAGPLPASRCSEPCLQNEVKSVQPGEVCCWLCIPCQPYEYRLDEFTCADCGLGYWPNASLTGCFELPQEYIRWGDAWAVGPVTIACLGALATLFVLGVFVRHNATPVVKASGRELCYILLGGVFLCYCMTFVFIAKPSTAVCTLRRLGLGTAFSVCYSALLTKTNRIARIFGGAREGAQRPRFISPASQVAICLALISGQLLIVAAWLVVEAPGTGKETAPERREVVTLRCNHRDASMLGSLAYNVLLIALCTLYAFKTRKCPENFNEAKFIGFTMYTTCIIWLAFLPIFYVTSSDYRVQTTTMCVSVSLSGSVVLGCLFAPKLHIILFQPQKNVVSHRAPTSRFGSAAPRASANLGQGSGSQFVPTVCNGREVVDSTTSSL

O=C1CC(c2cccc(-n3nncc3CO)c2)=Nc2cc(N3CCOCC3)c(C(F)(F)F)cc2N1 [Example 1, 4-[3-(5-Hydroxymethyl-[1,2,3]triazol-1-yl)-phenyl]-7-morpholin-4-yl-8-trifluoromethyl-1,3-dihydro-benzo[b][1,4]diazepin-2-one] showed a Ki [1] of 74 nM and a melting point of 200 °C.
N#Cc1cc(C2=Nc3cc(N4CCOCC4)c(C(F)(F)F)cc3NC(=O)C2)ccn1 [Example 2, 4-(8-Morpholin-4-yl-4-oxo-7-trifluoromethyl-4,5-dihydro-3H-benzo[b][1,4]diazepin-2-yl)-pyridine-2-carbonitrile] showed a Ki [1] of 20 nM and a melting point of 220 °C.
In the case of N#Cc1cccc(C2=Nc3ccc(-n4cccc4)cc3NC(=O)C2)c1 [Example 4, 3-(4-oxo-7-Pyrrol-1-yl-4,5-dihydro-3H-benzo[b][1,4]diazepin-2-yl)-benzonitrile], the Ki [1] is reported as 35 nM and the melting point is reported as 219 °C.
For N#Cc1cccc(C2=Nc3cc(I)c(-n4cccc4)cc3NC(=O)C2)c1 [Example 9, 3-(8-Iodo-4-oxo-7-pyrrol-1-yl-4,5-dihydro-3H-benzo[b][1,4]diazepin-2-yl)-benzonitrile], the Ki [1] was 75 nM and the melting point was 215 °C.
Compound N#Cc1cccc(C2=Nc3ccc(-n4ccc(-c5ccccc5)c4)cc3NC(=O)C2)c1 [Example 12, 3-[4-oxo-7-(3-Phenyl-pyrrol-1-yl)-4,5-dihydro-3H-benzo[b][1,4]diazepin-2-yl]-benzonitrile] has a Ki [1] of 75 nM.
Compound O=C1CC(c2cccc(-n3ccnc3)c2)=Nc2ccc(-n3cccc3)cc2N1 [Example 16, 4-(3-Imidazol-1-yl-phenyl)-8-pyrrol-1-yl-1,3-dihydro-benzo[b][1,4]diazepin-2-one] has a Ki [1] of 25 nM and a melting point of 220 °C.
With COc1cc2c(cc1-n1cccc1)NC(=O)CC(c1cccc(C#N)c1)=N2 [Example 17, 3-(8-Methoxy-4-oxo-7-pyrrol-1-yl-4,5-dihydro-3H-benzo[b][1,4]diazepin-2-yl)-benzonitrile] the Ki [1] was 44 nM.
With COc1cc2c(cc1-n1cccc1C(C)(C)C)NC(=O)CC(c1cccc(C#N)c1)=N2 [Example 18, 3-[7-(2-tert.-Butyl-pyrrol-1-yl)-8-methoxy-4-oxo-4,5-dihydro-3H-benzo[b][1,4]diazepin-2-yl]-benzonitrile] the Ki [1] was 80 nM and the melting point was > 250 °C.
For O=C1CC(c2cccc(-c3nc(CO)cs3)c2)=Nc2ccc(-n3cccc3)cc2N1 [Example 20, 4-[3-(4-Hydroxymethyl-thiazol-2-yl)-phenyl]-8-pyrrol-1-yl-1,3-dihydro-benzo[b][1,4]diazepin-2-one], the Ki [1] was 28 nM and the melting point was 238 to 240 °C.
Work on O=C1CC(c2cccc(-n3ccnn3)c2)=Nc2ccc(-n3cccc3)cc2N1 [Example 21, 8-Pyrrol-1-yl-4-(3-[1,2,3]triazol-1-yl-phenyl)-1,3-dihydro-benzo[b][1,4]diazepin-2-one] yielded a Ki [1] of 7.5 nM and a melting point of 206 to 209 °C.
Work on O=C1CC(c2cccc(-c3ncco3)c2)=Nc2ccc(-n3cccc3)cc2N1 [Example 22, 4-(3-Oxazol-2-yl-phenyl)-8-pyrrol-1-yl-1,3-dihydro-benzo[b][1,4]diazepin-2-one] yielded a Ki [1] of 23 nM and a melting point of 251 to 253 °C.
CCOC(=O)c1ncoc1-c1cccc(C2=Nc3ccc(-n4cccc4)cc3NC(=O)C2)c1 [Example 23, 5-[3-(4-oxo-7-Pyrrol-1-yl-4,5-dihydro-3H-benzo[b][1,4]diazepin-2-yl)-phenyl]-oxazole-4-carboxylic Acid Ethyl Ester] gave a Ki [1] of 29 nM and a melting point of 222 to 224 °C.
For NC(=O)c1coc(-c2cccc(C3=Nc4ccc(-n5cccc5)cc4NC(=O)C3)c2)n1 [Example 27, 2-[3-(4-oxo-7-Pyrrol-1-yl-4,5-dihydro-3H-benzo[b][1,4]diazepin-2-yl)-phenyl]-oxazole-4-carboxylic Acid Amide], the Ki [1] was 62 nM and the melting point was 232 to 234 °C.
In the case of Cc1cc2c(cc1C(F)(F)F)NC(=O)CC(c1cccc(-n3nncc3CO)c1)=N2 [Example 68, 4-[3-(5-Hydroxymethyl-[1,2,3]triazol-1-yl)-phenyl]-7-methyl-8-trifluoromethyl-1,3-dihydro-benzo[b][1,4]diazepin-2-one], the melting point is reported as 215 °C.
Work on Cc1cc(-c2cccc(C3=Nc4cc(C)c(C(F)(F)F)cc4NC(=O)C3)c2)on1 [Example 70, 7-Methyl-4-[3-(3-methyl-isoxazol-5-yl)-phenyl]-8-trifluoromethyl-1,3-dihydro-benzo[b][1,4]diazepin-2-one] yielded a melting point of 240 °C.
In the case of O=C1CC(c2cccc(-n3cncn3)c2)=Nc2cc(Cl)c(C(F)(F)F)cc2N1 [Example 71, 7-Chloro-4-(3-[1,2,4]triazol-1-yl-phenyl)-8-trifluoromethyl-1,3-dihydro-benzo[b][1,4]diazepin-2-one], the melting point is reported as 258 °C.
Work on O=C1CC(c2cccc(-n3ccnc3)c2)=Nc2cc(Cl)c(C(F)(F)F)cc2N1 [Example 72, 7-Chloro-4-(3-imidazol-1-yl-phenyl)-8-trifluoromethyl-1,3-dihydro-benzo[b][1,4]diazepin-2-one] yielded a melting point of 225 °C.
In the case of O=C1CC(c2cccc(-n3ccnn3)c2)=Nc2cc(Cl)c(C(F)(F)F)cc2N1 [Example 73, 7-Chloro-4-(3-[1,2,3]triazol-1-yl-phenyl)-8-trifluoromethyl-1,3-dihydro-benzo[b][1,4]diazepin-2-one], the melting point is reported as 219 °C.
Work on Cc1cc2c(cc1C(F)(F)F)NC(=O)CC(c1cccc(-n3cncn3)c1)=N2 [Example 74, 7-Methyl-4-(3-[1,2,4]triazol-1-yl-phenyl)-8-trifluoromethyl-1,3-dihydro-benzo[b][1,4]diazepin-2-one] yielded a melting point of 241 °C.
Cc1cc2c(cc1C(F)(F)F)NC(=O)CC(c1cccc(-n3ccnn3)c1)=N2 [Example 76, 7-Methyl-4-(3-[1,2,3]triazol-1-yl-phenyl)-8-trifluoromethyl-1,3-dihydro-benzo[b][1,4]diazepin-2-one] showed a melting point of 237 °C.
In the case of CC(=O)OCc1coc(-c2cccc(C3=Nc4ccc(-n5cccc5)cc4NC(=O)C3)c2)n1 [Example 78, Acetic Acid 2-[3-(4-oxo-7-Pyrrol-1-yl-4,5-dihydro-3H-benzo[b][1,4]diazepin-2-yl)-phenyl]-oxazol-4-ylmethyl Ester], the melting point is reported as 206 to 207 °C.
With CNCc1coc(-c2cccc(C3=Nc4ccc(-n5cccc5)cc4NC(=O)C3)c2)n1 [Example 79, 4-[3-(4-Methylaminomethyl-oxazol-2-yl)-phenyl]-8-pyrrol-1-yl-1,3-dihydro-benzo[b][1,4]diazepin-2-one] the melting point was 182 to 183 °C.
CN(C)Cc1coc(-c2cccc(C3=Nc4ccc(-n5cccc5)cc4NC(=O)C3)c2)n1 [Example 80, 4-[3-(4-Dimethylaminomethyl-oxazol-2-yl)-phenyl]-8-pyrrol-1-yl-1,3-dihydro-benzo[b][1,4]diazepin-2-one] showed a melting point of 172 to 175 °C.
With O=C1CC(c2cccc(-c3nc(CN4CCOCC4)co3)c2)=Nc2ccc(-n3cccc3)cc2N1 [Example 81, 4-[3-(4-Morpholin-4-ylmethyl-oxazol-2-yl)-phenyl]-8-pyrrol-1-yl-1,3-dihydro-benzo[b][1,4]diazepin-2-one] the melting point was 166 to 167 °C.
For N#Cc1cc(C2=Nc3ccc(-n4cccc4)cc3NC(=O)C2)ccn1 [Example 82, 4-(4-oxo-7-Pyrrol-1-yl-4,5-dihydro-3H-benzo[b][1,4]diazepin-2-yl)-pyridine-2-carbonitrile], the melting point was 243 to 244 °C.
Cc1cc2c(cc1C(F)(F)F)NC(=O)CC(c1cccc(-c3ncoc3C)c1)=N2 [Example 83, 7-Methyl-4-[3-(5-methyl-oxazol-4-yl)-phenyl]-8-trifluoromethyl-1,3-dihydro-benzo[b][1,4]diazepin-2-one] gave a melting point of 241 to 242 °C.
